Here are results for 8 molecules from patent US6489537B1 (priority 1998, dated 2002).

Data set [1] deals with S. cerevisiae ycf1Δ mutant strain DTY167. It is filed as cell-based. To be noted: for IC50: read-out: concentration required for 50% attenuation of cell density.
The test system of data set [2] is S. cerevisiae cells expressing an Arabidopsis metallothionein. Put plainly: Growth in presence of Cd2+ after BSO preincubation, metallothionein cells. It is filed as cell-based. As to conditions: 6 hour preincubation, 60 μM Cd2+, OD 18 hours after Cd2+. How it is done:
FIG. 13A is a graph depicting phytochelatin synthesis in cells expressing PCS. The growth of S. cerevisiae cells expressing either TaPCS1 (circles) or an Arabidopsis metallothionein (squares) in the presence of Cd^2+ (200 μM for TAPCS1 and 60 μM for metallothionein) following a 6 hour preincubation using different concentrations of BSO (L-Buthionine-sulfoxime), a glutathione synthesis inhibitor. The OD was measured 18 hours after the addition of Cd^2+.

The subject of data set [3] is S. cerevisiae cells expressing TaPCS1. As to conditions: 6 hour preincubation, 200 μM Cd2+, OD 18 hours after Cd2+.
The test system of data set [4] is S. cerevisiae INVSc1 cells. Put plainly: Cd2+ dose-response growth of TaPCS1-expressing and control yeast cells. It is filed as cell-based. As to conditions: YNB 1% sucrose/1% galactose, OD600 after 24 hours, read-out: K0.5 for growth.
The next data set relates to TaPCS1 message. Put plainly: Competitive PCR of TaPCS1 expression in wheat roots. It is filed as in vivo. As to conditions: wheat roots treated with 100 μM Cd2+ for 6 hours versus untreated.
A short description of data set [5]: Equilibrium dialysis of purified AtPCS1-FLAG against 109CdCl2. It is filed as binding. To be noted: immunoaffinity-purified protein. How it is done: The binding of Cd^2+ was determined by equilibrium dialysis of a 400-800 μl (160 μg) sample of purified AtPCS1-FLAG against 80 ml volumes of 10 mM Tris-HCl buffer, pH 7.8, containing 0.05 to 20 μM ^109CdCl2 (specific activity 22 Ci/mol, Amersham Pharmacia Biotech, Piscataway, N.J.) for 12 hours at 4° C. in 2 ml mini-collodion membrane tubes (molecular weight cut-off of 25,000; Schleicher and Schuell, Inc., Keene, N.H.). Protein-bound ^109Cd was estimated by measuring the radioactivity of the bulk medium outside the dialysis tube and that of the solution within the dialysis tube and determining the increase in ^109Cd radioactivity consequent on AtPCS1-FLAG. Binding constants and stoichiometries of binding were estimated by nonlinear least squares analysis (Marquardt, 1963, J. Soc. Ind. Appl. Math. 11:431-441) using the Ultrafit nonlinear curve fitting package from BioSoft (Ferguson, Mo.).

The nature of data set [6]: PC synthase activity assay (incorporation of GSH into PC2 and PC3). To be noted: for aggregate rate of incorporation of GSH into PC2 and PC3: purified protein. It is filed as biochemical. How it is done: PC synthase activity was assayed according to Grill et al. (1989, Proc. Natl. Acad. Sci. U.S.A. 86:6838-6842) in reaction media containing crude soluble fraction (50 μg protein), purified AtPCS1-FLAG (0.5 μg) or no protein, 3.3 mM GSH, 10 mM 2-mercaptoethanol and 200 mM Tris-HCl buffer (pH 8.0) plus or minus 200 μM CdCl2 at 37° C. for 40 minutes. After terminating the reactions with 5% (w/v) 5-sulfosalicylic acid, PCs were estimated in the supernatant by reverse-phase FPLC and reaction with DTNB.

Another data set has as its system S. cerevisiae. Nature of the data set: Growth of PCS-expressing yeast on YNB medium with 100 μM Cd2+. It is filed as cell-based.
The next data set relates to S. cerevisiae cells. Put plainly: Cd2+ accumulation using 109Cd2+. It is filed as cell-based. To be noted: versus empty pYES2 cells; 24 hour culture, non-inhibitory Cd2+ concentrations, n=3. How it is done:
FIG. 10 is a graph depicting the greater accumulation of Cd^2+ by cells expressing TaPCS1 compared to the Cd^2+ accumulation by control cells. Yeast cells carrying the empty pYES2 plasmid (white bars) and TaPCS1-expressing cells (black bars) were grown in arginine-phosphate medium containing different non-inhibitory Cd^2+ concentrations. After 24 hours, the cells were harvested and washed and the amount of Cd^2+ accumulated inside the cells was determined using ^109 Cd^2+ (Error bars=S.E., n=3).
S. cerevisiae cells were grown in arginine-phosphate medium for 24 hours in the presence of various amounts of CdCl2 containing 0.5 μCi ^109Cd^2+. The cells were harvested and washed. The radioactivity was determined as described previously (Clemens et al., 1998, Proc. Natl. Acad. Sci. U.S.A. 95:12043-12048).

“And” between values parts separate entries of the source, which are not always exact repeats. Identical values can stand only once. Like-named read-outs stand apart in the source and are kept apart here. Some results are limits rather than exact numbers.

For the molecule `[Cu+2]` [Cu^2+], in data set [1], the “fold increase in concentration exerting 50% inhibition of growth in liquid culture” value is given as 2.4 fold.
With `CCCCS(=N)(=O)CCC(N)C(=O)O` [BSO, L-Buthionine-sulfoxime], the “effect on metallothionein-dependent Cd2+ tolerance” value in data set [2] is recorded as “no effect”. Also, the “effect on TaPCS1-mediated Cd2+ tolerance” value in [3] is on record as “reduced the TaPCS1-mediated Cd^2+ tolerance in a dose-dependent manner”.
As for `[Cl][Cd][Cl]` [Cd^2+, CdCl2], the “fold increase in concentration exerting 50% inhibition of growth in liquid culture” value in [1] was found to be 24 fold. Further, the results for the IC50 in [4] (TaPCS1-expressing cells) and in data set [4] (control cells with empty pYES2) were 90 µM and 6 µM, respectively. Further, in the data set on TaPCS1 message, the “fold higher concentration of TaPCS1 message” value is 5-10 fold.
As for `O=[As]O` [AsO2^−], in data set [1], the “fold increase in concentration exerting 50% inhibition of growth in liquid culture” value is listed as 1.6 fold; the IC50 was 200 µM and 325 µM.
Consider `[Hg+2]` [Hg^2+], for which, in data set [1], the “fold increase in concentration exerting 50% inhibition of growth in liquid culture” value was determined as 1.6 fold; the IC50 was 4 µM and 6.3 µM.

B1: AtPCS1-FLAG (protein, UniProt Q9S7Z3 1-485, looked up)
Glutathione …: MAMASLYRRSLPSPPAIDFSSAEGKLIFNEALQKGTMEGFFRLISYFQTQSEPAYCGLASLSVVLNALSIDPGRKWKGPWRWFDESMLDCCEPLEVVKEKGISFGKVVCLAHCSGAKVEAFRTSQSTIDDFRKFVVKCTSSENCHMISTYHRGVFKQTGTGHFSPIGGYNAERDMALILDVARFKYPPHWVPLKLLWEAMDSIDQSTGKRRGFMLISRPHREPGLLYTLSCKDESWIEIAKYLKEDVPRLVSSQHVDSVEKIISVVFKSLPSNFNQFIRWVAEIRITEDSNQNLSAEEKSRLKLKQLVLKEVHETELFKHINKFLSTVGYEDSLTYAAAKACCQGAEILSGSPSKEFCCRETCVKCIKGPDDSEGTVVTGVVVRDGNEQKVDLLVPSTQTECECGPEATYPAGNDVFTALLLALPPQTWSGIKDQALMHEMKQLISMASLPTLLQEEVLHLRRQLQLLKRCQENKEEDDLAAPAY
modifications: FLAG tag
With B1, the “stoichiometric ratio of Cd2+ binding (cadmium per AtPCS1)” value in data set [5] was 7.09±0.94. In addition, the “aggregate rate of incorporation of GSH into PC2 and PC3” value in data set [6] (absence of Cd2+) is less than 0.01 nmol/mg/min; in data set [6] (presence of Cd2+ (200 μM CdCl2), 3.3 mM GSH, 37° C.), 30000 to 35000 nmol/mg/min. The “catalytic activity exceeding that of previous preparations from plants” value in [6] (versus Grill et al., 1989) was “more than 10^3 fold”.

B2: AtPCS1: Arabidopsis thaliana phytochelatin synthase, 55 kDa, SEQ ID NO: 2 (protein, UniProt Q9S7Z3 1-485, looked up)
Glutathione …: MAMASLYRRSLPSPPAIDFSSAEGKLIFNEALQKGTMEGFFRLISYFQTQSEPAYCGLASLSVVLNALSIDPGRKWKGPWRWFDESMLDCCEPLEVVKEKGISFGKVVCLAHCSGAKVEAFRTSQSTIDDFRKFVVKCTSSENCHMISTYHRGVFKQTGTGHFSPIGGYNAERDMALILDVARFKYPPHWVPLKLLWEAMDSIDQSTGKRRGFMLISRPHREPGLLYTLSCKDESWIEIAKYLKEDVPRLVSSQHVDSVEKIISVVFKSLPSNFNQFIRWVAEIRITEDSNQNLSAEEKSRLKLKQLVLKEVHETELFKHINKFLSTVGYEDSLTYAAAKACCQGAEILSGSPSKEFCCRETCVKCIKGPDDSEGTVVTGVVVRDGNEQKVDLLVPSTQTECECGPEATYPAGNDVFTALLLALPPQTWSGIKDQALMHEMKQLISMASLPTLLQEEVLHLRRQLQLLKRCQENKEEDDLAAPAY
Turning to B2, the “stoichiometric ratio of Cd2+ binding (cadmium per AtPCS1)” value in [5] is on record as “approximately 6”. Also, the “Cd2+ tolerance conferred when expressed in S. cerevisiae” value with S. cerevisiae was “strong Cd^2+ tolerance”.

B3: TaPCS1: wheat (Triticum aestivum) phytochelatin synthase, SEQ ID NO: 6 (protein, UniProt Q9SWW5 1-500, looked up)
Glutathione …: MEVASLYRRVLPSPPAVEFASAEGKRLFAEALQGGTMEGFFNLISYFQTQSEPAFCGLASLSVVLNALAIDPGRPWKGPWRWFDESMLDCCEPLHKVKAEGITFGKVVCLAHCAGARVQSFRADQTTIHDFRAHLTRCASSQDCHLISSYHRSPFKQTGTGHFSPIGGYHAEKDMALILDVARFKYPPHWVPLTLLWDAMNTTDEATGLLRGFMLVSRRSSAPSLLYTVSCGHGSWKSMAKYCVEDVPNLLKDESLDNVTTLLSRLVESLPANAGDLIKCVIEVRRKEEGESSLSKEEKERLFLKEKVLQQIRDTDLFRVVHELQYPKGLCGSCSSSSDEDSLAEIAATVCCQGAAFLSGNLVSRDGFCCRETCIKCIEANGDGLKTVISGTVVSKGNEQAVDLLLPTSSSKTSLCNSNLKSKIVKYPSSTDVLTVLLLVLQPNTWLGIKDENVKAEFQSLVSTDNLPDLLKQEILHLRRQLHYLAGCKGQEACQEPPSP
Regarding B3, the “increase in Cd2+ accumulation” value in the data set on S. cerevisiae cells was 30-50%.
